The text below walks through data of article PMC12439141, “Self-Assembling Hydrogels of Naproxen-Conjugated Peptides for Osteoarthritis Treatment” (Theranostics, 2025).

Data set [1] in a line: Zeta potential measurements. The conditions noted are these: 400 µM; pH:7.2 (Figure 2F legend), text says physiological pH 7.4. The class given is physicochemical. An excerpt: Scale bars represent 200 nm.
Under physiological conditions, glutamic acid carries a negative charge, while histidine, lysine, and arginine carry positive charges.

Data set [2] can be described thus: TEM imaging of assemblies. The class given is physicochemical. Particulars: TEM images. On the procedure: (C) FTIR spectra of NpxFFR (light green), NpxFFK (orange), NpxFFH (dark green), NpxFFE (purple) and Npx (medium spring green). (D) Hydrogel formation of Npx-peptide conjugates at 20 mg/mL concentration in ddH2O. […] (F) Zeta potential measurements of 400 µM Npx-peptide conjugates at pH:7.2. (G) TEM images of Npx and Npx-peptide conjugates. Scale bars represent 200 nm.

In data set [3] the test system is C28/I2 chondrocytes. In words: Chondrocyte proliferation (Calcein-AM staining and MTT quantification). The conditions noted are these: C28/I2 chondrocytes, 1, 2 and 3 days, compared to non-treated control. Format: cell-based, human.
Data set [4] has as its system LPS-stimulated RAW264.7 cells. In words: COX-2 and pro-inflammatory factor expression (qRT-PCR, immunofluorescence). The class given is cell-based, mouse. Particulars: RAW264.7, 1 µg/mL LPS, 400 µM; 6 h, 12 h (PCR), 12 h or 24 h (immunofluorescence). As for the experimental part:
After treatment, cells were harvested and total RNA was extracted using a total RNA purification kit (SparkJade, China), and cDNA was obtained from total RNA by a reverse transcription kit (SparkJade). Finally, qRT-PCR was performed using SYBR Green qPCR premix (SparkJade) on QuantGene 9600 real-time PCR (Bioer, Hangzhou, China). 2 Calculation of Relative Gene Expression-ΔΔCT method was used, and GAPDH was used as an internal reference gene.
Immunofluorescence staining was performed following a general procedure. After treatment, cells were fixed with 4% paraformaldehyde for 20 min, and permeabilized in 0.5% Triton X-100 for 5 min. 10% goat serum was used to block non-specific binding. Cells were then incubated with primary antibodies overnight. Then cells were incubated with fluorescently labeled secondary antibody for 1 h. […] For assessing RAW264.7 macrophage polarization, permeabilization procedure is not needed; anti-CD86 and anti-CD163 primary antibodies were used for identifying M1 macrophage or M2 macrophage, respectively. Primary antibodies included: anti-CD86 (1:300), anti-CD163 (1:300), anti-COX2 (1:300) and anti-COL2 (1:300). Cy3 or FITC labeled secondary antibodies were used for fluorescent imaging.
On the technique in general: Quantitative PCR measures a nucleic acid by following its amplification.

For data set [5], the system named is LPS-stimulated RAW264.7 cells. As to the kind of experiment: ELISA quantification of PGE2. The class given is cell-based, mouse. Particulars: 400 µM, 6 h, 12 h, n = 3. An excerpt: Figure 4 COX-2 inhibition of NpxFFK. (A) molecular docking of COX-2 (PDB ID: 6COX) with NpxFFK. (B) Binding of NpxFFK with amino acid residues in the active pocket of COX-2. (C) Schematic representation of the anti-inflammatory mechanism of Npx and the peptide NpxFFK. […] Scale bars represent 200 µm. […] The blank groups in panel D-G referred to the RAW264.7 cells without stimulation of LPS.

Data set [6] in a line: DPPH free radical scavenging test. Particulars: PBS (pH 7.2), 400 µM, 2 h, 25 °C, absorbance 517 nm, n = 3. As for the experimental part:
(§1) DPPH free radical scavenging test
(§2) DPPH (2, 2-Diphenyl -1-[…]) radical solution (0.58 mg/mL) was prepared by dissolving DPPH radical in anhydrous ethanol. Briefly, 6mg of […]
(§3) solution which were then incubated in dark for 2 h at 25°C. The absorbance of the mixed solution at 517 nm was measured using an enzyme-labeled instrument. The scavenging ability was calculated as DPPH free radical scavenging rate (%) = [(A0-A1)/A0] × 100%, where A0 is the absorbance of DPPH free radical solution, A1 is the absorbance of sample group. The experiment was repeated three times for each sample.
(§4) ABTS·+ free radical scavenging test […]
(§5) free radical solution, and then incubated at 25 °C for 30 mins in dark. The absorbance at 734 nm was measured using an enzyme-labeled instrument.
(§6) ABTS+ free radical scavenging activity is calculated according to the following formula: ABTS+ free radical scavenging rate (%) = [(A0-A1)/A0] × 100%, where A0 is the absorbance of ABTS+ free radical solution, and A1 is the absorbance of sample group. […]
(§7) Figure S14. Quantitative analysis of immunofluorescent staining of macrophages in Figure 5A and 5B. […]
(§8) Figure S16. Quantitative analysis of ROS fluorescent intensities (A) in Figure 5D, and fluorescent ratio of JC-1 in aggregate to monomer (B) in Figure 5E. […]

A short description of data set [7]: ABTS+ free radical scavenging test. The conditions noted are these: PBS (pH 7.2), 400 µM, 30 mins, 25 °C, absorbance 734 nm, n = 3. As for the experimental part: as §1, §2, §3, §4, §5, §6, §7, §8
Data set [8] concerns OA rat model. In words: Footprint gait analysis in MIA-induced OA rats. Format: in vivo, SD rats. Particulars: IA injection, 100 mg/kg, 2 weeks. As for the experimental part: The OA model was induced by local injection of 50 µL/1mg sodium iodoacetate (MIA) into the joint cavity of each rat. Rats injected with saline were treated as the sham group (n = 6). […] Each group contained 6 rats. 50 µL drugs were injected locally at day 0 and day 14, respectively. After 14 days of treatment, the rats were examined by indentation-collecting gait analysis, after which the rats were euthanized with isoflurane, and the knee joints were sampled for gross morphological observation. After 28 days of treatment, sampling was performed for micro-CT analysis, histological staining and immunohistochemistry.
The cardboard is laid flat on the floor. Both forelimbs of the rats were covered with blue ink and both hind legs with red ink, ensuring that the movements of the animals were as clear as possible. The sides of the runway consisted of cardboard, and the width was rationalized according to the weight and size of the rat. The room environment was kept quiet and the rats were placed on one side of the runway and allowed to pass freely. Before the start of the experiment, the rats were given two consecutive days of behavioral acclimatization training.

Data set [9] relates to OA rat model. As to the kind of experiment: Immunofluorescence and immunohistochemistry of joint sections in OA rats. Format: in vivo, SD rats. The conditions noted are these: 100 mg/kg IA, 4 weeks. As for the experimental part: The knee joints were fixed in 4% paraformaldehyde, decalcified for 4 weeks, and embedded in paraffin for histological evaluation. Subsequently, the samples were sectioned and stained with hematoxylin and eosin (H&E) as well as […]/Fast Green. An enhanced Mankin scoring system was used to assess the pathologic status of the knee joint. Sections were incubated overnight at 4 °C with primary antibodies and further stained with a fluorescently labeled secondary antibody or 3,3'-diaminobenzidine (DAB)-tagged secondary antibody for immunohistochemical analysis.

For the compound `COc1ccc2cc([C@H](C)C(=O)O)ccc2c1` [Npx, naproxen], the “Zeta Potential” value in data set [1] is -20.3 mV. Moreover, the “Morphology of assemblies (TEM)” value in data set [2] is given as “uneven aggregates”. Moreover, the “Effect on chondrocyte proliferation” value in data set [3] was “the proliferation decreased over time”. Moreover, in data set [4], the “COX-2 expression at gene level and protein level” value is “downregulated COX-2 expression”. Further, the PGE2 production result in data set [5] was “reduced PGE2 production”. The “DPPH radical scavenging activity” value in data set [6] is listed as “neglectable radical scavenge activity”. Moreover, in data set [7], the “ABTS+ radical scavenging activity” value is listed as “neglectable radical scavenge activity”. In [8] (sham 12.83 cm, saline 7.57 cm), this compound registered a Stride length of 9.42 cm. Moreover, the Hindpaw contact area result in [8] (versus sham and saline) is listed as “partial improvement”. Also, the “Expression of COX-2, TNF-α and IL-1β in joint sections” value in data set [9] was “significantly reduced the expression of COX-2”.
